Activity calls are given as the source filed them. No cut-off for these calls is given here.
Columns and labels:
Mus musculus [1] = test: Neurotoxicity in Carworth farms No.1 albino mouse assessed as neurological impairment at 100 mg/kg, ip measured after 1 hr; assay type: toxicity, organism-based; set-up: dose 100 mg/kg, route intraperitoneal; conditions: in vivo
Mus musculus [2] = species: Mus musculus; test: Anticonvulsant activity in electric shock-induced Carworth farms No.1 albino mouse assessed as time of peak effect; assay type: functional
Mus musculus [3] = test: Neurotoxicity in Carworth farms No.1 albino mouse assessed as neurological impairment at 300 mg/kg, ip measured after 4 hrs; assay type: toxicity, organism-based; set-up: dose 300 mg/kg, route intraperitoneal; conditions: in vivo
Mus musculus [4] = test: Neurotoxicity in Carworth farms No.1 albino mouse assessed as neurological impairment at 30 mg/kg, ip measured after 4 hrs; assay type: toxicity, organism-based; set-up: dose 30 mg/kg, route intraperitoneal; conditions: in vivo
Mus musculus [5] = test: Neurotoxicity in Carworth farms No.1 albino mouse assessed as neurological impairment at 30 mg/kg, ip measured after 0.5 hrs; assay type: toxicity, organism-based; set-up: dose 30 mg/kg, route intraperitoneal; conditions: in vivo
Mus musculus [6] = test: Neurotoxicity in Carworth farms No.1 albino mouse assessed as neurological impairment at 100 mg/kg, ip measured after 0.5 hrs; assay type: toxicity, organism-based; set-up: dose 100 mg/kg, route intraperitoneal; conditions: in vivo
Mus musculus [7] = test: Neurotoxicity in Carworth farms No.1 albino mouse assessed as neurological impairment at 100 mg/kg, ip measured after 4 hrs; assay type: toxicity, organism-based; set-up: dose 100 mg/kg, route intraperitoneal; conditions: in vivo
Mus musculus [8] = test: Neurotoxicity in Carworth farms No.1 albino mouse assessed as neurological impairment at 100 mg/kg, ip measured after 0.25 hrs; assay type: toxicity, organism-based; set-up: dose 100 mg/kg, route intraperitoneal; conditions: in vivo
Mus musculus [9] = test: Anticonvulsant activity in ip dosed Carworth farms No.1 albino mouse assessed as protection against 6 Hz electric current-induced seizure measured after 0.25 hrs; assay type: functional
Mus musculus [10] = test: Neurotoxicity in Carworth farms No.1 albino mouse assessed as neurological impairment at 300 mg/kg, ip measured after 0.5 hrs; assay type: toxicity, organism-based; set-up: dose 300 mg/kg, route intraperitoneal; conditions: in vivo
Mus musculus [11] = test: Neurotoxicity in Carworth farms No.1 albino mouse assessed as neurological impairment at 100 mg/kg, ip measured after 2 hr; assay type: toxicity, organism-based; set-up: dose 100 mg/kg, route intraperitoneal; conditions: in vivo
Mus musculus [12] = test: Anticonvulsant activity in Carworth farms No.1 albino mouse assessed as protection against maximum electroshock at 100 mg/kg, ip measured after 4 hrs; assay type: functional, organism-based; set-up: dose 100 mg/kg
Mus musculus [13] = test: Anticonvulsant activity in Carworth farms No.1 albino mouse assessed as protection against subcutaneous metrazole-induced seizures at 100 mg/kg, ip measured after 4 hrs; assay type: functional, organism-based; set-up: dose 100 mg/kg
Mus musculus [14] = test: Anticonvulsant activity in Carworth farms No.1 albino mouse assessed as protection against 6 Hz electric current-induced seizure at 100 mg/kg, ip measured after 4 hrs; assay type: functional, organism-based; set-up: dose 100 mg/kg
Mus musculus [15] = test: Anticonvulsant activity in Carworth farms No.1 albino mouse assessed as protection against maximum electroshock at 30 mg/kg, ip measured after 0.5 hrs; assay type: functional, organism-based; set-up: dose 30 mg/kg
Mus musculus [16] = test: Anticonvulsant activity in Carworth farms No.1 albino mouse assessed as protection against maximum electroshock at 300 mg/kg, ip measured after 4 hrs; assay type: functional, organism-based; set-up: dose 300 mg/kg
Mus musculus [17] = test: Anticonvulsant activity in Carworth farms No.1 albino mouse assessed as protection against maximum electroshock at 100 mg/kg, ip measured after 0.5 hrs; assay type: functional, organism-based; set-up: dose 100 mg/kg
Mus musculus [18] = test: Anticonvulsant activity in Carworth farms No.1 albino mouse assessed as protection against subcutaneous metrazole-induced seizures at 30 mg/kg, ip measured after 4 hrs; assay type: functional, organism-based; set-up: dose 30 mg/kg
Mus musculus [19] = test: Anticonvulsant activity in Carworth farms No.1 albino mouse assessed as protection against subcutaneous metrazole-induced seizures at 300 mg/kg, ip measured after 0.5 hrs; assay type: functional, organism-based; set-up: dose 300 mg/kg
Mus musculus [20] = test: Anticonvulsant activity in Carworth farms No.1 albino mouse assessed as protection against subcutaneous metrazole-induced seizures at 30 mg/kg, ip measured after 0.5 hrs; assay type: functional, organism-based; set-up: dose 30 mg/kg
Mus musculus [21] = test: Anticonvulsant activity in Carworth farms No.1 albino mouse assessed as protection against subcutaneous metrazole-induced seizures at 300 mg/kg, ip measured after 4 hrs; assay type: functional, organism-based; set-up: dose 300 mg/kg
Mus musculus [22] = test: Anticonvulsant activity in Carworth farms No.1 albino mouse assessed as protection against maximum electroshock at 300 mg/kg, ip measured after 0.5 hrs; assay type: functional, organism-based; set-up: dose 300 mg/kg
Mus musculus [23] = test: Anticonvulsant activity in Carworth farms No.1 albino mouse assessed as protection against subcutaneous metrazole-induced seizures at 100 mg/kg, ip measured after 0.5 hrs; assay type: functional, organism-based; set-up: dose 100 mg/kg
Mus musculus [24] = test: Anticonvulsant activity in Carworth farms No.1 albino mouse assessed as protection against maximum electroshock at 30 mg/kg, ip measured after 4 hrs; assay type: functional, organism-based; set-up: dose 30 mg/kg
Mus musculus [25] = test: Anticonvulsant activity in Carworth farms No.1 albino mouse assessed as protection against 6 Hz electric current-induced seizure at 100 mg/kg, ip measured after 2 hrs; assay type: functional, organism-based; set-up: dose 100 mg/kg
Mus musculus [26] = test: Anticonvulsant activity in Carworth farms No.1 albino mouse assessed as protection against 6 Hz electric current-induced seizure at 100 mg/kg, ip measured after 1 hrs; assay type: functional, organism-based; set-up: dose 100 mg/kg
Mus musculus [27] = test: Anticonvulsant activity in Carworth farms No.1 albino mouse assessed as protection against 6 Hz electric current-induced seizure at 100 mg/kg, ip measured after 0.25 hrs; assay type: functional, organism-based; set-up: dose 100 mg/kg
Mus musculus [28] = test: Anticonvulsant activity in Carworth farms No.1 albino mouse assessed as protection against 6 Hz electric current-induced seizure at 100 mg/kg, ip measured after 0.5 hrs; assay type: functional, organism-based; set-up: dose 100 mg/kg

Structure (SMILES)	Activity (Mus musculus [1])	Activity (Mus musculus [3])	Activity (Mus musculus [4])	Activity (Mus musculus [5])	Activity (Mus musculus [6])	Activity (Mus musculus [7])	Activity (Mus musculus [8])	Activity (Mus musculus [10])	Activity (Mus musculus [11])	Activity (Mus musculus [12])	Activity (Mus musculus [13])	Activity (Mus musculus [15])	Activity (Mus musculus [16])	Activity (Mus musculus [17])	Activity (Mus musculus [18])	Activity (Mus musculus [19])	Activity (Mus musculus [20])	Activity (Mus musculus [21])	Activity (Mus musculus [22])	Activity (Mus musculus [23])	other results
Cl.O=C1[C@H]2CCCCN2[C@H](c2ccccc2)C(=O)N1CCc1ccccc1	Non-toxic	Non-toxic	Non-toxic	Non-toxic	Non-toxic	Non-toxic	Non-toxic	Non-toxic	Non-toxic												Time (Mus musculus [2]): 0.25 h; ED50 (Mus musculus [9]): 78.5 mg/kg
O=C1[C@H](c2ccccc2)N2CCCC[C@H]2C(=O)N1CCc1ccccc1 [listing 1 of 2 here]		Non-toxic	Non-toxic	Non-toxic	Non-toxic	Non-toxic		Non-toxic													
O=C1[C@H]2CCCCN2[C@H](c2ccccc2)C(=O)N1CCc1ccccc1 [listing 1 of 2 here]	Non-toxic	Non-toxic	Non-toxic	Non-toxic	Non-toxic	Non-toxic	Non-toxic	Non-toxic	Non-toxic												
O=C1[C@H]2CCCCN2[C@H](c2ccccc2)C(=O)N1CCc1ccccc1 [listing 2 of 2 here]										inactive	inactive	inactive	inactive	inactive	inactive	inactive	inactive	inactive	inactive	inactive	Activity (Mus musculus [14]): inactive; Activity (Mus musculus [24]): inactive
O=C1CN2CCCC[C@H]2C(=O)N1	Non-toxic	Non-toxic	Non-toxic	Non-toxic	Non-toxic	Non-toxic	Non-toxic	Non-toxic	Non-toxic	inactive	inactive	inactive	inactive	inactive	inactive	inactive	inactive	inactive	inactive	inactive	Activity (Mus musculus [14]): inactive; Activity (Mus musculus [25]): inactive; Activity (Mus musculus [26]): Active; Activity (Mus musculus [27]): Active; Activity (Mus musculus [28]): inactive; Activity (Mus musculus [24]): inactive
O=C1NC(=O)[C@@H](c2ccccc2)N2CCCC[C@@H]12	Non-toxic	Non-toxic	Non-toxic	Non-toxic	Non-toxic	Non-toxic	Non-toxic	Non-toxic	Non-toxic	inactive	inactive	inactive	inactive	inactive	inactive	inactive	inactive	inactive	inactive	inactive	Activity (Mus musculus [14]): inactive; Activity (Mus musculus [25]): inactive; Activity (Mus musculus [26]): inactive; Activity (Mus musculus [27]): inactive; Activity (Mus musculus [28]): inactive; Activity (Mus musculus [24]): inactive
Cl.O=C1[C@H]2CCCCN2[C@H](c2ccccc2)C(=O)N1Cc1ccccc1		Non-toxic	Non-toxic	Non-toxic	Non-toxic	Non-toxic		Toxic		inactive	inactive	inactive	Active	inactive	inactive	inactive	inactive	inactive	Active	inactive	Activity (Mus musculus [24]): inactive
O=C1[C@H]2CCCCN2[C@@H](c2ccccc2)C(=O)N1Cc1ccccc1	Non-toxic	Non-toxic	Non-toxic	Non-toxic	Non-toxic	Non-toxic	Non-toxic	Non-toxic	Non-toxic	inactive	inactive	inactive	inactive	inactive	inactive	inactive	inactive	inactive	inactive	inactive	Activity (Mus musculus [14]): inactive; Activity (Mus musculus [25]): inactive; Activity (Mus musculus [26]): inactive; Activity (Mus musculus [27]): inactive; Activity (Mus musculus [28]): inactive; Activity (Mus musculus [24]): inactive
Cl.O=C1[C@H](c2ccccc2)N2CCCC[C@H]2C(=O)N1CCc1ccccc1	Non-toxic	Non-toxic	Non-toxic	Non-toxic	Non-toxic	Non-toxic	Non-toxic	Non-toxic	Non-toxic												
O=C1CN2CCCC[C@@H]2C(=O)N1	Non-toxic	Non-toxic	Non-toxic	Non-toxic	Non-toxic	Non-toxic	Non-toxic	Non-toxic	Non-toxic	inactive	inactive	inactive	inactive	inactive	inactive	inactive	inactive	inactive	inactive	inactive	Activity (Mus musculus [14]): inactive; Activity (Mus musculus [25]): inactive; Activity (Mus musculus [26]): Active; Activity (Mus musculus [27]): inactive; Activity (Mus musculus [28]): Active; Activity (Mus musculus [24]): inactive
CC[C@@H](C(N)=O)N1CCCC1=O [LEVETIRACETAM]																					Time (Mus musculus [2]): 1 h
O=C1[C@H](c2ccccc2)N2CCCC[C@H]2C(=O)N1CCc1ccccc1 [listing 2 of 2 here]										inactive	inactive	inactive	inactive	inactive	inactive	inactive	inactive	inactive	inactive	inactive	Activity (Mus musculus [14]): inactive; Activity (Mus musculus [25]): inactive; Activity (Mus musculus [26]): inactive; Activity (Mus musculus [27]): Active; Activity (Mus musculus [28]): Active; Activity (Mus musculus [24]): inactive

— ChEMBL document CHEMBL1944578, “Synthesis and anticonvulsant activity of novel 2,6-diketopiperazine derivatives. Part 2: Perhydropyrido[1,2-a]pyrazines” (Eur J Med Chem, 2012)
